From patent publication US11254671B2, “Chemical compounds” (GLAXOSMITHKLINE INTELLECTUAL PROPERTY DEVELOPMENT LIMITED, priority 2017, dated 2022)
Several values for one entry are separate records, joined by “and”; a condition that tells them apart may be missing. Equal entries are not always repeated.

Legend:
mTOR = target: T1, mTOR (Homo sapiens, UniProt P42345); assay: mTOR kinobeads assay (competition-binding assay); conditions: HuT-78 cell extract, endogenously expressed mTOR, bead-immobilized capturing ligand; mean of multiple experiments; read-out: mean pIC50, affinity for mTOR (converted)
T1 construct: capturing of endogenously expressed target proteins from cell extracts by a bead-immobilized capturing ligand; endogenous in cells; host or cells: HuT-78 cells (ECACC 88041901), cell lysate
Protocol: The affinity of test compounds for mTOR was determined in the mTOR kinobeads assay. This is a competition-binding assay based on the capturing of endogenously expressed target proteins from cell extracts by a bead-immobilized capturing ligand in presence of the test compound.
HuT-78 cells (European Collection of Authenticated Cell Cultures, 88041901) were cultured according to vendor's instructions. Frozen cell pellets were homogenized in 3× pellet volumes lysis buffer (50 mM Tris-HCl, 0.4% (v/v) Igepal-CA630, 5% glycerol, 150 mM NaCl, 1.5 mMMgCl2, 25 mM NaF, 1 mM sodium vanadate, 1 mM DTT, pH 7.5, supplemented with EDTA-free protease inhibitor tablet (Roche)). The sample was dispersed using a Dounce homogenizer, kept rotating for 30 min at 4° C., and centrifuged for 10 min at 20 000 g at 4° C. The supernatant was centrifuged again for 1 h at 145 000 g. The protein concentration was determined by Bradford assay (BioRad), aliquots were snap frozen in liquid nitrogen and stored at −80° C.
The capturing matrices were generated by derivatizing N-hydroxysuccinimide (NHS) activated Sepharose 4 beads (GE Healthcare) with the functionalized ligands Compound A and Compound C at a ligand density of 5 mM. Remaining NHS-groups were blocked with ethanolamine.
For the mTOR kinobeads assay the matrices were combined in a 1:1 ratio and equilibrated in DP buffer (50 mM Tris-HCl (pH 7.5), 0.4% (v/v) Igepal-CA630, 5% (v/v) glycerol, 150 mM NaCl, 1.5 mM MgCl2, 25 mM NaF, 1 mM Na3VO4, 1 mM dithiothreitol). All steps of the mTOR kinobeads assay were performed at 4° C. or on ice. The cell lysate was diluted with DP buffer to a final concentration of 5 mg/ml and a final detergent concentration of 0.4% (v/v) Igepal-CA630. For the assay 250 μg cell lysate and 2.5 μl capturing matrix per well (final assay volume: 75 μl) were incubated in the presence of test compounds in a 384-well filter plate (MultiScreenHTS HV Filter Plate, 0.45 μm, MZHVNOW50, Merck Millipore). Each plate contained 16 positive (100 μM Compound B) and 16 negative (2% v/v DMSO) control wells. Compounds were tested in a concentration-response applying 1:3 or 1:4 dilution steps for in total 11 data points. DMSO concentration was 2% (v/v). After 2 h incubation on an overhead shaker (Roto-Shake Genie, Scientific Industries Inc.) at 4° C. the non-bound fraction was removed by washing the beads with DP buffer. Proteins retained on the beads were eluted in SDS sample buffer (200 mM Tris (pH 7.4), 250 mM Trizma Base, 4% (w/v) SDS, 20% (v/v) glycerol, 0.01% (w/v) bromophenol blue, 50 mM dithiothreitol) into a collection plate (384 well polypropylene microplate, V-shape, Greiner, 781 280). Eluates were spotted on nitrocellulose membranes (400 nl per spot) using an automated pin-tool liquid transfer (Biomek FX, Beckman). After drying, the membranes were rehydrated in 20% (v/v) ethanol and blocked by incubation with Odyssey blocking buffer (LICOR, 927-40000) for 1 h at room temperature. Blocked membranes were incubated overnight at 25° C. with Odyssey blocking buffer supplemented with a specific anti-mTOR antibody (Cell Signaling, 2972; 1:500) and 0.4% TWEEN-20. Then the membranes were washed in PBST buffer and incubated for 60 minutes at room temperature with the detection antibody (IRDye™ labelled antibody from LI-COR) diluted in Odyssey blocking buffer (LICOR 927-40000) containing 0.2% TWEEN-20. Then the membranes were washed with PBST and finally rinsed twice with PBS buffer to remove residual Tween-20. The membranes were then scanned with the Odyssey® Infrared Imaging System (LI-COR Biosciences). Fluorescence signals were recorded and analyzed according to the instructions of the manufacturer. Concentration response curves were computed with the software Activity Base. All data were normalized to the mean of 16 high (negative control) and 16 low (positive control) control wells on each plate. […]

[1] = tested on: phosphorylated Akt at serine 473 (pAKTs473) in primary human lung fibroblasts; assay: Highthroughput phosphorylated Akt (Ser473) in vitro immunoassay (MSD); format: cell-based; conditions: Fibroblast, 1 h compound, PDGF-BB 10 ng/ml for 10 min, mean of multiple experiments, read-out: mean pIC50, inhibition of pAkt (Ser473) (converted)
Excerpt: Highthroughput Phosphorylated Akt (Ser473) In Vitro Immunoassay
Immunoassay to measure effect of test compounds on phosphorylated Akt at serine 473 (pAKTs473) in primary human lung fibroblasts (Lonza Group Ltd, Basel, Switzerland, Catalogue No. CC-2512) using the MesoScale Discovery (MSD) platform to quantify levels of total Akt and pAKTser473.
Human lung fibroblasts were routinely maintained in fibroblast basal medium supplemented with 2% foetal bovine serum (FBS), 0.1% human fibroblast growth factor (FGF)-B, 0.1% insulin, 0.1% GA-100 (Lonza Group Ltd, Basel, Switzerland, Catalogue No. CC-3132) at 37° C. in 5% CO2 according to the manufacturer's protocol.
For the assay, cells were harvested using Trypsin/EDTA, (Lonza Group Ltd, Basel, Switzerland, Catalogue No. CC-5012), at working concentration of 0.025%, resuspended to give 3×10^5 cells/ml and 50 ul/well seeded into 384-well plates (Greiner Group, Kremsmunster, Austria, Catalogue No. 781091) in media containing 0.4% FBS and incubated o/n at 37° C. in 5% CO2.
Test compounds were dissolved in 100% DMSO to give 10 mM stock solutions and serially diluted to generate an 11-point concentration response curve. Compound were further diluted by […] into 384-well V-bottom polypropylene plates (Greiner Group, Kremsmunster, Austria, Catalogue No. 781280) with media containing 0.4% FBS to give 50 μM top compound concentration in 0.5% DMSO.
Compounds were transferred to 384-well plates contacting cells (0.1% DMSO final) and incubated for 1 h at 37° C. in 5% CO2, prior to stimulation with platelet-derived growth factor (PDGF)-BB (R&D Systems, Catalogue No. 220-BB) at 10 ng/ml (final) for 10 min at RT. Cell assay plates were incubated on ice and treated with lysis buffer (Cell Signalling Technology, Catalogue No. 9806) containing protease and phosphatase inhibitors (Thermo Scientific, Catalogue No. 78444) followed by shaking for 30 min at 4° C.
MSD plates (MSD, MA6000 384-well GAR plate, Catalogue No. L21RA-2) were blocked with blocking buffer containing TBS (MSD, Cat. No. R61TX-1) with 0.5% bovine serum albumin (BSA) (Sigma Aldrich, Cat. No. A7906), 0.1% tween-20 (Sigma Aldrich, Catalogue No. P2287) and coated with rabbit-anti-human pAkt (s473) ab (Cell Signalling Technology, Catalogue No. CST #4060) at RT with shaking, followed by washing (×3) with 1×TBS wash reagent containing 0.1% Tween-20. Cell lysates (30 ul) were added and MSD plates centrifuged at 1000 rpm at 4° C. o/n.
Plates were washed with 1×TBS wash buffer (×3), prior to addition of mouse-anti-human-total Akt ab (1 mg/ml) (Upstate (Milipore), Catalogue No. 05-591) in blocking buffer and shaken at RT for 1 h. After washing with 1×TBS wash buffer (×3), plates were incubated with goat-anti-mouse SULFO-TAG detection ab (MSD, Catalogue No. R32AC-1) (1:500 in blocking buffer) for 1 h at RT. Plates were washed with 1×TBS (×3) and read buffer (2×) (MSD, Catalogue No. R92TC-1) added before detecting electrochemiluminescence (MSD Sector Imager 6000).
Data analysis was performed by determining % inhibition values for test compounds relative to the minimum (+PDGF-BB stimulation) and maximum responses (no PDGF-BB stimulation) with non-linear regression analysis to determine IC50 values for test compounds.

| Compound | IC50 (mTOR) | IC50 [1] |
| --- | --- | --- |
| CC[C@H]1COCCN1c1cc(CS(C)(=O)=O)cc(-c2ccc3[nH]c(CN(C)CC)cc3n2)n1 [Example 14, (S)—N-((5-(6-(3-ethylmorpholino)-4-((methylsulfonyl)-methyl)pyridin-2-yl)-1H-pyrrolo[3,2-b]pyridin-2-yl)-methyl)-N-methylethanamine] | 2.51 to 316 nM | 3.16 to 316 nM |
| CNCc1cc2nc(-c3cc(CS(C)(=O)=O)cc(N4CCOC[C@H]4C)n3)ccc2[nH]1 [Example 26, ({5-[4-(methanesulfonylmethyl)-6-[(3R)-3-methylmorpholin-4-yl]pyridin-2-yl]-1H-pyrrolo[3,2-b]pyridin-2-yl}methyl)(methyl)amine] | 2.51 to 316 nM | 3.16 to 316 nM |
| CNCc1cc2nc(-c3cc(CS(C)(=O)=O)cc(N4CCCOCC4)n3)ccc2[nH]1 [Example 45, ({5-[4-(methanesulfonylmethyl)-6-(1,4-oxazepan-4-yl)pyridin-2-yl]-1H-pyrrolo[3,2-b]pyridin-2-yl}methyl)(methyl)amine] | 2.51 to 316 nM |  |
| CC[C@H]1COCCN1c1cc(CS(N)(=O)=O)cc(-c2ccc3[nH]c(CNC)cc3n2)n1 [Example 29, {2-[(3S)-3-ethylmorpholin-4-yl]-6-{2-[(methylamino)methyl]-1H-pyrrolo[3,2-b]pyridin-5-yl}pyridin-4-yl}methanesulfonamide] | 2.51 to 31.6 nM and 2.51 to 316 nM | 3.16 to 316 nM |
| CNCc1cc2nc(-c3cc(CS(C)(=O)=O)cc(N4CCOCC4)n3)ccc2[nH]1 [Example 46, ({5-[4-(methanesulfonylmethyl)-6-(morpholin-4-yl)pyridin-2-yl]-1H-pyrrolo[3,2-b]pyridin-2-yl}methyl)(methyl)amine] | 2.51 to 316 nM |  |
| CC[C@H]1COCCN1c1cc(C2(S(C)(=O)=O)CCOCC2)cc(-c2ccc3[nH]c(CNC)cc3n2)n1 [Example 15, (S)-1-(5-(6-(3-ethylmorpholino)-4-(4-(methylsulfonyl)tetrahydro-2H-pyran-4-yl)pyridin-2-yl)-1H-pyrrolo[3,2-b]pyridin-2-yl)-N-methylmethanamine] | 2.51 to 31.6 nM and 7.94 nM and 2.51 to 316 nM | 2.51 to 10 nM |
| CC[C@H]1COCCN1c1cc(C2(S(C)(=O)=O)CCNCC2)cc(-c2ccc3[nH]c(CO)cc3n2)n1 [Example 36] | 2.51 to 31.6 nM and 2.51 to 316 nM | 3.16 to 316 nM |
| CNCc1cc2nc(-c3cc(CS(C)(=O)=O)cc(N4C5CCC4COC5)n3)ccc2[nH]1 [Example 47, ({5-[4-(methanesulfonylmethyl)-6-{3-oxa-8-azabicyclo[3.2.1]octan-8-yl}pyridin-2-yl]-1H-pyrrolo[3,2-b]pyridin-2-yl}methyl)(methyl)amine] | 2.51 to 316 nM | 3.16 to 316 nM |
| CC[C@H]1COCCN1c1cc(C(C)(C)S(C)(=O)=O)cc(-c2ccc3[nH]c(CNC)cc3n2)n1 [Example 1, [(5-{6-[(3S)-3-ethylmorpholin-4-yl]-4-(2-methanesulfonylpropan-2-yl)pyridin-2-yl}-1H-pyrrolo[3,2-b]pyridin-2-yl)methyl](methyl)amine] | 2.51 to 31.6 nM and 15.8 nM and 2.51 to 316 nM |  |
| CC[C@H]1COCCN1c1cc(C2(S(C)(=O)=O)CCN(C(C)=O)CC2)cc(-c2ccc3[nH]c(CNC)cc3n2)n1 [Example 39, 1-(4-{2-[(3S)-3-ethylmorpholin-4-yl]-6-{2-[(methylamino)methyl]-1H-pyrrolo[3,2-b]pyridin-5-yl}pyridin-4-yl}-4-methanesulfonylpiperidin-1-yl)ethan-1-one] | 2.51 to 316 nM |  |
| CC[C@H]1COCCN1c1cc(C2(S(N)(=O)=O)CCOCC2)cc(-c2ccc3[nH]c(CNC)cc3n2)n1 [Example 27, 4-{2-[(3S)-3-ethylmorpholin-4-yl]-6-{2-[(methylamino)methyl]-1H-pyrrolo[3,2-b]pyridin-5-yl}pyridin-4-yl}oxane-4-sulfonamide] |  | 3.16 to 316 nM |
| CC[C@H]1COCCN1c1cc(C2(S(C)(=O)=O)CCOCC2)cc(-c2ccc3[nH]c(CN(C)CC)cc3n2)n1 [Example 16, (S)—N-((5-(6-(3-ethylmorpholino)-4-(4-(methylsulfonyl)tetrahydro-2H-pyran-4-yl)pyridin-2-yl)-1H-pyrrolo[3,2-b]pyridin-2-yl)methyl)-N-methylethanamine] | 2.51 to 316 nM | 3.16 to 316 nM |
| CC[C@H]1COCCN1c1cc(C2(S(C)(=O)=O)CCNCC2)cc(-c2ccc3[nH]c(CNC)cc3n2)n1 [Example 24, [(5-{6-[(3S)-3-ethylmorpholin-4-yl]-4-(4-methanesulfonylpiperidin-4-yl)pyridin-2-yl}-1H-pyrrolo[3,2-b]pyridin-2-yl)methyl](methyl)amine] | 2.51 to 31.6 nM and 2.51 to 316 nM | 3.16 to 316 nM |
